For data set [1], the target named is Intercellular adhesion molecule 1 (Homo sapiens) (UniProt P05362). In words: Inhibition of sICAM1/LFA1 interaction-mediated human THP1 cell adhesion at 3.13 ug/mL after 1 hr by ELISA. In kind it is cell-based. To be noted: THP-1. A general note: An ELISA detects its analyte on a solid surface through an enzyme-linked reagent.
The target is the same in data set [2]. In words: Inhibition of sICAM1/LFA1 interaction-mediated human THP1 cell adhesion at 6.25 ug/mL after 1 hr by ELISA. In kind it is cell-based. To be noted: THP-1.
For data set [3], the species on record is Mus musculus. Briefly: Antiinflammatory activity in mouse. In kind it is functional, organism-based.
Data set [4] concerns the target Intercellular adhesion molecule 1 (Homo sapiens) (UniProt P05362). Briefly: Inhibition of sICAM1/LFA1 interaction-mediated human THP1 cell adhesion at 25 ug/mL after 1 hr by ELISA. As to conditions: THP-1.
Data set [5] has the same target. Briefly: Inhibition of sICAM1/LFA1 interaction-mediated human THP1 cell adhesion at 12.50 ug/mL after 1 hr by ELISA. To be noted: THP-1. In kind it is cell-based.
Data set [6] concerns THP-1. In words: Cytotoxicity against human THP1 cells assessed as cell viability at 3.13 to 25.00 ug/mL by MTT assay. In kind it is cell-based. (In general: Formazan colour is commonly taken as a measure of viable cells.)

Our source for the Activity and inhibition values is ChEMBL document CHEMBL1156593, “Alkamides from the fruits of Piper longum and Piper nigrum displaying potent cell adhesion inhibition” (Bioorg Med Chem Lett, 2008).

The source made the active and inactive calls. The calls are words filed in the database; no cut-off is given here.

Chain of Intercellular adhesion molecule 1 (Homo sapiens) (P05362 whole entry): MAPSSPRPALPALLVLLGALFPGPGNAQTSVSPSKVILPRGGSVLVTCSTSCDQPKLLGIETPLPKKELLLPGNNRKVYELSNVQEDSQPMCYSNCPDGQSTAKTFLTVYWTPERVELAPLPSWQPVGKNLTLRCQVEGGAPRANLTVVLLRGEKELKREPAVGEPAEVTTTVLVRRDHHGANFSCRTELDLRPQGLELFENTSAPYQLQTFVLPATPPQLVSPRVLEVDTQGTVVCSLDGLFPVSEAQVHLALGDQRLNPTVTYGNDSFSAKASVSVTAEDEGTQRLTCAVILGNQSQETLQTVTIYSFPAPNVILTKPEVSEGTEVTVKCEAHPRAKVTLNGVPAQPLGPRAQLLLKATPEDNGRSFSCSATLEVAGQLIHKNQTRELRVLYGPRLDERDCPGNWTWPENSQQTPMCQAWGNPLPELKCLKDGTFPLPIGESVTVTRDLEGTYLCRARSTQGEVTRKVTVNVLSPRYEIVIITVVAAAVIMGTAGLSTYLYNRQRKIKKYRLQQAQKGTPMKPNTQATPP

For `O=C(/C=C/C=C\CC/C=C/c1ccc2c(c1)OCO2)N1CCCCC1`, the outcome in data set [1] was inactive. Besides, the inhibition (in general, how much of the control response was suppressed) was found to be 13.1% in data set [2], 92.1% in data set [4] and 58.4% in data set [5]. Moreover, the result in data set [3] was Active. Besides, the Activity entry in data set [6] is “Non-toxic”.

Turning to `CC[C@H](C)C(=O)O[C@H]1C[C@@H](C)C=C2C=C[C@H](C)[C@H](CC[C@@H]3C[C@@H](O)CC(=O)O3)[C@H]21`, the result in data set [1] and in data set [4] was inactive. The inhibition turned out to be 37.7% in data set [2] and 61.4% in data set [5].

For the molecule `O=C(/C=C/C=C/CC/C=C/c1ccc2c(c1)OCO2)N1CCCCC1` [DEHYDROPIPERNOLINE], the inhibition was determined as 30.1% in data set [1], 52.5% in data set [2], 73.4% in data set [4] and 57.7% in data set [5]. The result in data set [3] was Active. In data set [6], the Activity entry is on record as “Non-toxic”.

Consider `CC(C)CNC(=O)/C=C/C=C/CCCCCC/C=C/c1ccc2c(c1)OCO2` [GUINEENSINE], for which the result in data set [1] was inactive. For the same molecule, the inhibition came out at 14.9% in data set [2], 36.8% in data set [4] and 31.7% in data set [5]. In addition, in data set [3], the outcome was Active. The Activity entry in data set [6] is listed as “Non-toxic”.

As for `CCCCC/C=C/C=C/C(=O)NCC(C)C` [PELLITORIN], the inhibition was 11.3% in data set [1], 16.5% in data set [2], 80.6% in data set [4] and 46.4% in data set [5]. Also, the outcome in data set [3] was Active. In addition, the Activity entry in data set [6] is reported as “Non-toxic”.

`CC(C)CNC(=O)/C=C/CCCCCC/C=C/c1ccc2c(c1)OCO2` [PIPERCHABAMIDE D]: the inhibition in data set [1] worked out at 15.6%; in data set [2], 20.9%; in data set [4] it was 42.6%; in data set [5], 26.9%. In addition, the result in data set [3] was Active. The Activity entry in data set [6] is given as “Non-toxic”.

Regarding `O=C(/C=C/CCCC/C=C/c1ccc2c(c1)OCO2)N1CCCCC1` [PIPERNONALINE], the inhibition in data set [1] turned out to be 12.5%; in data set [2] it was 36.8%; in data set [4] it was 93.8%; in data set [5], 70.2%. Moreover, the outcome in data set [3] was Active. Also, in data set [6], the Activity result was “Non-toxic”.

Turning to `O=C(CCCCCC/C=C/c1ccc2c(c1)OCO2)N1CCCCC1` [PIPERROLEIN B], the inhibition turned out to be 16.2% in data set [1], 28.5% in data set [2], 67.6% in data set [4] and 46.5% in data set [5]. The result in data set [3] was Active. The Activity entry in data set [6] is “Non-toxic”.

Take `CC(C)CNC(=O)/C=C/CCCC/C=C/c1ccc2c(c1)OCO2` [RETROFRACTAMIDE C]: in data set [1], the result was inactive. Besides, the inhibition was 29.9% in data set [2], 36% in data set [4] and 35.9% in data set [5]. For the same molecule, the result in data set [3] was Active. Also, the Activity result in data set [6] was “Non-toxic”.
